Test system: medial meniscal tear-induced cartilage degeneration
Experiment: Rat medial meniscal tear model, knee histopathology after intra-articular dosing
Type: in vivo, Male Lewis rats
Conditions: IA 3 μg (each) Q4D days 4, 8, 12, 16, 20, 24; vs Q4D vehicle controls
Method: This model is performed by transection of the medial collateral ligament just below its attachment to the meniscus so that when the joint space opens, the meniscus is reflected toward the femur. The meniscus is cut at its narrowest point (away from the ossicles) taking care not to damage the tibial surface and making sure that the resulting transection produces separate, freely movable anterior and posterior meniscus halves.
Experimental Design: Animals were anesthetized with Isoflurane and the right knee area was prepared for surgery. A skin incision was made over the medial aspect of the knee and the medial collateral ligament was exposed by blunt dissection, and then transected. The medial meniscus was cut through the full thickness to simulate a complete tear. Skin and subcutis were closed with 4-0 Vicryl suture. Dosing by the intra-articular (IA) route began four days after surgery and continued as indicated below until day 24. Treatment groups were as follows: […]
All three sections of each knee were analyzed microscopically. In scoring the three sections, the worst-case scenario for the two halves on each slide was determined for general cartilage degeneration, proteoglycan loss, collagen damage, and osteophyte formation. […] When zones are scored individually, scores are assigned based on % area of the zone affected. […]

With `COc1ccc([C@@H]2Sc3ccccc3N(CCN(C)C)C(=O)[C@@H]2OC(C)=O)cc1` [Diltiazem, 5-[2-(dimethylamino)ethyl]-2-(4-methoxyphenyl)-4-oxo-2,3,4,5-tetrahydro-1,5-benzothiazepin-3-yl acetate] the “decrease in the total joint score” value was 6%.

From patent US12433899B2, “Therapeutics and method for treating osteoarthritis” (Calosyn Pharma Inc., priority 2021, dated 2025)
